Data published in patent US10968222B2, “2-azabicyclo hexane JAK inhibitor compound” (THERAVANCE BIOPHARMA R&D IP, LLC, priority 2018, dated 2021).

Assays:
[1] = system: IL-6 stimulated CCL2 (MCP-1) production in human PBMCs; assay: Inhibition of IL-6 stimulated CCL2 (MCP-1) in human PBMCs; format: cell-based; settings: PBMC, 48 h stimulation, ELISA, read-out: pIC50, inhibition of IL-6 stimulated CCL2 (MCP-1) (converted)
Description: The potency of the test compound for inhibition of interleukin-6 (IL-6) stimulated CCL2 (MCP-1) production was measured in human peripheral blood mononuclear cells (PBMCs) isolated from human whole blood (Stanford Blood Center). Because IL-6 signals through JAK, this assay provides a distal measure of JAK cellular potency.
(1) The protocol of Assay 4 paragraph (1) was followed up to the incubation with test compounds. In the present assay, after test compounds were added to wells and incubated, IL-6 (R&D Systems; final concentration 10 ng/ml) in pre-warmed assay media (50 μL) was added.
(2) After cytokine stimulation for 48 h, cells were centrifuged at 500 g for 5 min and supernatants were removed and frozen at −80° C. To determine the inhibitory potency of the test compound in response to IL-6, supernatant CCL2 (MCP-1) concentrations were measured via ELISA (R&D Systems). IC50 values were determined from analysis of the inhibition curves of concentration of CCL2/MCP-1 vs compound concentration. Data are expressed as pIC50 (negative decadic logarithm IC50) values.

[2] = molecular target: T1, AURKA (Homo sapiens, UniProt O14965); assay: Kinome screen, AURKA; format: binding; settings: screened at 1 μM
T1 construct: made in house; host or cells: E. coli BL21-derived host (T7 phage) or HEK-293 cells
T1 sequence (O14965 whole entry): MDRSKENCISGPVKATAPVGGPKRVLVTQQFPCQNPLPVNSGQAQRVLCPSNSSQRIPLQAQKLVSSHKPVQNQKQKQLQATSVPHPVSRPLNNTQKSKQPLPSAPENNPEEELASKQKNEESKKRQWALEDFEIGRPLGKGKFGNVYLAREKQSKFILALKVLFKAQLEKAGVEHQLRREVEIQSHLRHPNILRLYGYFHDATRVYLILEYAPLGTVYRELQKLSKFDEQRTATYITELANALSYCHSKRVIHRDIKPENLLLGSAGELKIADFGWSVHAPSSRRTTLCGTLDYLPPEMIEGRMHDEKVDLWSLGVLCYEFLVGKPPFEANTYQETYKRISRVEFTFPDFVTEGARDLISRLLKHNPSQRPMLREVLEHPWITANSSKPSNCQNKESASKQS
Description: Compounds 1 and C-1 were screened against other kinases to evaluate their selectivity profile.
Kinase-tagged T7 phage strains were grown in parallel in 24-well blocks in an E. coli host derived from the BL21 strain. E. coli were grown to log-phase and infected with T7 phage from a frozen stock (multiplicity of infection=0.4) and incubated with shaking at 32° C. until lysis (90-150 minutes). The lysates were centrifuged (6,000×g) and filtered (0.2 μm) to remove cell debris. The remaining kinases were produced in HEK-293 cells and subsequently tagged with DNA for qPCR detection.
Streptavidin-coated magnetic beads were treated with biotinylated small molecule ligands for 30 minutes at room temperature to generate affinity resins for kinase assays. The liganded beads were blocked with excess biotin and washed with blocking buffer (SeaBlock (Pierce), 1% BSA, 0.05% Tween 20, 1 mM DTT) to remove unbound ligand and to reduce non-specific phage binding. Binding reactions were assembled by combining kinases, liganded affinity beads, and test compounds in 1× binding buffer (20% SeaBlock, 0.17×PBS, 0.05% Tween 20, 6 mM DTT). Test compounds were prepared as 40× stocks in 100% DMSO and directly diluted into the assay. All reactions were performed in polypropylene 384-well plates in a final volume of 0.04 ml. […] The kinase concentration in the eluates was measured by qPCR. […]

[3] = system: BEAS-2B human lung epithelial cells; assay: CellTiter-Glo cell viability/cytotoxicity assay; format: cell-based; settings: BEAS-2B cells; 48 h; 15% inhibition threshold
Description: A CellTiter-Glo luminescent cell viability/cytotoxicity assay was carried out in BEAS-2B human lung epithelial cells (ATCC) under the normal growth condition.
Cells were grown at 37° C. in a 5% CO2 humidified incubator in 50% DMEM/50% F-12 medium (Life Technologies) supplemented with 10% FBS (Hyclone), 100 U/mL penicillin, 100 μg/mL streptomycin (Life Technologies), and 2 mM GlutaMAX (Life Technologies). On day 1 of the assay, cells were seeded at a 500 cells/well density in white 384-well tissue culture plates (Corning) with 25 μL medium, and were allowed to adhere overnight in the incubator. On day 2 of the assay, 5 μL of medium containing dose-responses of test compounds was added, and incubated at 37° C. for 48 h. 30 μL of CellTiter-Glo detection solution (Promega) was subsequently added, mixed on an orbital shaker for 5 min, and incubated for additional 10 min before being read on the EnVision reader. Luminescence signals were recorded and percent DMSO control values were calculated.
For dose-response analysis, percent DMSO control data were plotted vs. compound concentrations to derive dose-response curves by line connecting each data point. The concentration at which each curve crosses the 15% inhibition threshold is defined as CC15.

[4] = system: IL-6 trans-signaling (IL6+sIL6Rα)-induced STAT3 phosphorylation in HRMECs; assay: Inhibition of IL-6 trans-signaling stimulated p-STAT3 in primary human retinal microvascular endothelial cells; format: cell-based; settings: HRMEC, 500 pM IL-6, 5 nM sIL6Rα, three independent experiments, read-out: pIC50, inhibition of IL-6 trans-signaling stimulated p-STAT3 (converted)
Description: The cellular potency of the test compound toward inhibition of IL-6 trans-signaling (IL6+sIL6Rα)-induced STAT3 phosphorylation was measured in primary human retinal microvascular endothelial cells (HRMECs). IL-6 trans-signaling is mediated by IL-6 receptor beta (gp130), which is intracellularly coupled to JAK enzymes. Following gp130 engagement and dimerization, JAKs are activated and directly phosphorylate STAT3. Thus, this assay provides a measure of JAK cellular potency. HRMECs (Cell Systems, Kirkland Wash.) were plated in sterile, tissue culture treated, flat-bottom 96-well assay plates coated with Attachment Factor™ (Cell Systems, Kirkland Wash.) at a density of 1×10^4 cells per well. HRMEC cultures were grown for 3 days at 37° C., 95% humidity, 5% CO2 in culture media supplemented with 10% fetal bovine serum, Culture Boost™ growth factors, and BacOff® antibiotic (Cell Systems, Kirkland Wash.). […] To determine the inhibitory potency of the test compound, levels of p-STAT3 were measured using AlphaLISA® SureFire® Ultra™ p-STAT3 (Tyr705) assay kit (PerkinElmer) according to manufacturer's instructions. IC50 values were determined from inhibition curves of % p-STAT3 Alpha Signal vs test compound concentration (curve fitting conducted with GraphPad Prism 7.0). Data are expressed as pIC50 (negative log10(test compound concentration)).

For `CCc1cc(O)c(F)cc1-c1cc(F)c2c(-c3nc4c([nH]3)CCN(C(=O)[C@]35C[C@H]3CCN5)C4)n[nH]c2c1` [Compound 1, (1S,5R)-2-azabicyclo[3.1.0]hexan-1-yl(2-(6-(2-ethyl-5-fluoro-4-hydroxyphenyl)-4-fluoro-1H-indazol-3-yl)-6,7-dihydro-3H-imidazo[4,5-c]pyridin-5(4H)-yl)methanone], the IC50 [1] was 316 nM, the inhibition at 1 µM [2] was 26% and the CC15 [3] was > 10000 nM. The pCC15 [3] was < 5 and the IC50 [4] was 501 nM.
